Data on 17 molecules can be found in patent publication US20230020329A1, “Annelated 9-hydroxy-1,8-dioxo-1,3,4,8-tetrahydro-2H-pyrido[1,2-a]pyrazine-7-carboxamides as HIV integrase inhibitors, methods of preparation and application thereof” (priority 2019, published 2023).

The subject of this experiment is HIV-1 (IIIB strain). The experiment can be described thus: Anti-HIV cytoprotection assay (XTT), HIV-1 IIIB in CEM-SS cells. The following applies: Human immunodeficiency virus 1, IIIB, CEM-SS, CEM-SS cell line; read-out: Inhibitory activity (EC50) against HIV-1 (IIIB strain). In kind it is cell-based. An excerpt: a) Inhibitory Activity of the Lymphocytropic Virus Strain HIV-1 (IIIB) in the CEM-SS Cell Line.
The evaluation was done by ImQuest BioSciences, Inc. (Frederick, Md., USA). CEM-SS cells [Foley G. E. et al. Continuous Culture of Human Lymphoblasts from Peripheral Blood of a Child with Acute Leukemia. Cancer 1965, 18, 522-529] obtained through the NIH AIDS Research and Reference Reagent Program (Manassas, Va., USA) were passaged in T-75 flasks prior to use cell culture medium consisting of RPMI1640 medium (Lonza; Walkersville, Md., USA) supplemented with 10% heat inactivated fetal bovine serum (Gibco; Grand Island, N.Y.), […] L-glutamine (Lonza), […] penicillin (Lonza) and […] streptomycin (Lonza) for antiviral analysis. The CEM-SS cells were kept in RPMI 140 medium supplemented with 10% heat inactivated bovine fetal serum, 2 mM glutamine, 100 U/ml penicillin, and 100 μg/ml streptomycin.
A lymphocytropic HIV-1 IIIB strain [Popovic, M. et al. Detection, isolation, and continuous production of cytopathic retroviruses (HTLV-III) from patients with AIDS and pre-AIDS. Science. 1984, 224 (4648), 497-500] was chosen for a virus to be analyzed. The virus was obtained through the NIH AIDS Research and Reference Reagents Program and grown in CEM-SS cells to produce a stock virus pool. A pre-titrated aliquot of the virus was removed from the freezer (−80° C.) and allowed to slowly thaw to room temperature in a biological safety cabinet. The virus was diluted in a tissue culture medium so that the amount of virus added in 50 μl per well was sufficient to kill 85 to 95% of the cells 6 days after infection. HIV-1 IIIB was grown and titrated in CEM-SS cells. The inhibitory effect of […] was evaluated in CEM-SS cells as described earlier [Nara, P. L. at al. Simple, rapid, quantitative, syncytium-forming microassay for the detection of human immunodeficiency virus neutralizing antibody. AIDS Res. Hum. Retroviruses 1987, 3, 283-302.] in microtiter plate anti-HIV assays to quantitatively assess the ability of a compound to inhibit HIV-induced cell death. Quantification was carried out using 2,3-bis-(2-methoxy-4-nitro-5-[…])-(2H)-tetrazolium-5-carboxanilide (XTT) tetrazolium, which is metabolized to a stained formazan product through viable […] The compounds given in Table 1 were dissolved at 10 μM in DMSO and stored at −20° C.
Test materials were evaluated using antiviral assays in triplicate in concentrations of 30 and 10 nM. The compounds shown in table 1 were dissolved at 10 μM in DMSO and stored at −20° C. […] Sixty nanomolar concentrations of each compound (2 times that of the test concentration in the well) were prepared by diluting 10 μM DMSO stock 1:100 in cell culture medium (10 μl of compound added to 990 μl of the medium) followed by 1:10 dilution (10 μl of the compound was added to 90 μl of the medium), then 6 μl was added to 994 μl of the medium; […] μl was added to a 96-well microtiter plate in triplicate to ensure efficacy and one colorimetric well. Twenty nanomolar concentrations of each compound (twice as much as the test concentration in the well) were prepared by diluting 10 μM DMSO with the original 1:100 in cell culture medium (10 μl of the compound added to 990 μl of the medium) followed by diluting […] (10 μl of the compound was added to 900 μl of the medium), then 20 μl was added to 980 μl of the medium; 100 μl was added to a 96-well microtiter plate in triplicate to ensure efficacy and one colorimetric well.
Azidothymidine (AZT) was purchased from Sigma Aldrich (USA) and evaluated as a positive control compound in an antiviral assay using a six-concentration reaction curve on each assay plate.
Test compounds were initially evaluated for HIV-1 IIIB strain in CEM-SS cells at test concentrations of 30 and 10 nM. […]
In general terms: Tetrazolium assays rely on reduction of a dye to a coloured formazan, in cell work by metabolically active cells.

As usually defined, the EC50 is the concentration giving half of the maximal effect. Consider `C[C@H]1CO[C@@H]2Cn3cc(C(=O)NCc4nncn4C)c(=O)c(O)c3C(=O)N12` [Compound 1.1.14, (3S,11aR)-6-hydroxy-3-methyl-N-[(4-methyl-4H-1,2,4-triazol-3-yl)methyl]-5,7-dioxo-2,3,5,7,11,11a-hexahydro[1,3]oxazolo[3,2-a]pyrido[1,2-d]pyrazine-8-carboxamide], for which the EC50 is approximately 10 nM. The value for `C[C@H]1CO[C@@H]2Cn3cc(C(=O)NCc4cc5c(cc4Br)OCO5)c(=O)c(O)c3C(=O)N12` [Compound 1.1.35, (3S,11aR)-N-[(6-bromo-1,3-benzodioxol-5-yl)methyl]-6-hydroxy-3-methyl-5,7-dioxo-2,3,5,7,11,11a-hexahydro[1,3]oxazolo[3,2-a]pyrido[1,2-d]pyrazine-8-carboxamide] was less than 2 nM. The value for `C[C@H]1CO[C@@H]2Cn3cc(C(=O)NCc4cnc5ccccn45)c(=O)c(O)c3C(=O)N12` [Compound 1.1.56, (3S,11aR)-6-hydroxy-N-(imidazo[1,2-a]pyridin-3-ylmethyl)-3-methyl-5,7-dioxo-2,3,5,7,11,11a-hexahydro[1,3]oxazolo[3,2-a]pyrido[1,2-d]pyrazine-8-carboxamide] was more than 30 nM; that for `C[C@H]1CO[C@@H]2Cn3cc(C(=O)NCc4ccc5c(ccn5C)c4)c(=O)c(O)c3C(=O)N12` [Compound 1.1.33, (3S,11aR)-6-hydroxy-3-methyl-N-[(1-methyl-1H-indol-5-yl)methyl]-5,7-dioxo-2,3,5,7,11,11a-hexahydro[1,3]oxazolo[3,2-a]pyrido[1,2-d]pyrazine-8-carboxamide] was 10 to 30 nM; that for `C[C@H]1CO[C@@H]2Cn3cc(C(=O)NCc4nc5cc(Cl)ccc5o4)c(=O)c(O)c3C(=O)N12` [Compound 1.1.38, (3S,11aR)-6-hydroxy-3-methyl-N-[(5-chloro-1,3-benzoxazol-2-yl)methyl]-5,7-dioxo-2,3,5,7,11,11a-hexahydro[1,3]oxazolo[3,2-a]pyrido[1,2-d]pyrazine-8-carboxamide] was more than 30 nM. As for `C[C@H]1CO[C@@H]2Cn3cc(C(=O)NCc4cccc5ncccc45)c(=O)c(O)c3C(=O)N12` [Compound 1.1.52, (3S,11aR)-6-hydroxy-3-methyl-N-(quinolin-5-ylmethyl)-5,7-dioxo-2,3,5,7,11,11a-hexahydro[1,3]oxazolo[3,2-a]pyrido[1,2-d]pyrazine-8-carboxamide], the EC50 is approximately 10 nM. The result for `Cc1nn(C)c(C)c1CNC(=O)c1cn2c(c(O)c1=O)C(=O)N1[C@@H](C)CO[C@@H]1C2` [Compound 1.1.5, (3S,11aR)-6-hydroxy-3-methyl-N-[(1,3,5-trimethyl-1H-pyrazol-4-yl)methyl]-5,7-dioxo-2,3,5,7,11,11a-hexahydro[1,3]oxazolo[3,2-a]pyrido[1,2-d]pyrazine-8-carboxamide] reads 10 to 30 nM; that for `Cc1ccc2[nH]c(CNC(=O)c3cn4c(c(O)c3=O)C(=O)N3[C@@H](C)CO[C@@H]3C4)nc2c1` [Compound 1.1.40, (3S,11aR)-6-hydroxy-3-methyl-N-[(5-methyl-1H-benzimidazol-2-yl)methyl]-5,7-dioxo-2,3,5,7,11,11a-hexahydro[1,3]oxazolo[3,2-a]pyrido[1,2-d]pyrazine-8-carboxamide], more than 30 nM; that for `C[C@H]1CO[C@@H]2Cn3cc(C(=O)NCc4ccc(Cl)nc4)c(=O)c(O)c3C(=O)N12` [Compound 1.1.18, (3S,11aR)-6-hydroxy-N-[(6-chloropyridin-3-yl)methyl]-3-methyl-5,7-dioxo-2,3,5,7,11,11a-hexahydro[1,3]oxazolo[3,2-a]pyrido[1,2-d]pyrazine-8-carboxamide], 10 to 30 nM.

With `C[C@@H]1CO[C@@]23CCC[C@@H]2n2cc(C(=O)NCc4c(F)cc(F)nc4F)c(=O)c(O)c2C(=O)N13` [Compound 2.1.3, (3aS,6R,13aS)-9-hydroxy-6-methyl-N-[(2,4,6-trifluoropyridin-3-yl)methyl]-8,10-dioxo-1,2,3,5,6,8,10,13a-octahydrocyclopenta[b][1,3]oxazolo[3,2-a]pyrido[1,2-d]pyrazine-11-carboxamide], the EC50 is 2 to 10 nM. Turning to `C[C@H]1CO[C@@H]2Cn3cc(C(=O)NCc4nc5ccc(Cl)cc5o4)c(=O)c(O)c3C(=O)N12` [Compound 1.1.39, (3S,11aR)-6-hydroxy-3-methyl-N-[(6-chloro-1,3-benzoxazol-2-yl)methyl]-5,7-dioxo-2,3,5,7,11,11a-hexahydro[1,3]oxazolo[3,2-a]pyrido[1,2-d]pyrazine-8-carboxamide], the EC50 is 2 to 10 nM.

With `Cc1n[nH]c(C)c1CNC(=O)c1cn2c(c(O)c1=O)C(=O)N1[C@@H](C)CO[C@@H]1C2` [Compound 1.1.4, (3S,11aR)-6-hydroxy-N-[(3,5-dimethyl-1H-pyrazol-4-yl)methyl]-3-methyl-5,7-dioxo-2,3,5,7,11,11a-hexahydro[1,3]oxazolo[3,2-a]pyrido[1,2-d]pyrazine-8-carboxamide], the EC50 is approximately 8 nM. The result for `C[C@H]1CO[C@@H]2Cn3cc(C(=O)NCc4cnc5ccccc5c4)c(=O)c(O)c3C(=O)N12` [Compound 1.1.50, (3S,11aR)-6-hydroxy-3-methyl-N-(quinolin-3-ylmethyl)-5,7-dioxo-2,3,5,7,11,11a-hexahydro[1,3]oxazolo[3,2-a]pyrido[1,2-d]pyrazine-8-carboxamide] reads 2 to 10 nM. On to `Cc1nc2cc(CNC(=O)c3cn4c(c(O)c3=O)C(=O)N3[C@@H](C)CO[C@@H]3C4)ccc2n1C` [Compound 1.1.64, (3S,11aR)-6-hydroxy-3-methyl-N-[(1,2-dimethyl-1H-benzimidazol-5-yl)methyl]-5,7-dioxo-2,3,5,7,11,11a-hexahydro[1,3]oxazolo[3,2-a]pyrido[1,2-d]pyrazine-8-carboxamide], for which the EC50 was more than 30 nM. The value for `C[C@H]1CO[C@@H]2Cn3cc(C(=O)NCc4ccnc5ccccc45)c(=O)c(O)c3C(=O)N12` [Compound 1.1.65, (3S,11aR)-6-hydroxy-3-methyl-N-(quinolin-4-ylmethyl)-5,7-dioxo-2,3,5,7,11,11a-hexahydro[1,3]oxazolo[3,2-a]pyrido[1,2-d]pyrazine-8-carboxamide] was less than 2 nM; that for `C[C@H]1CO[C@@H]2Cn3cc(C(=O)NCc4cn5cccnc5n4)c(=O)c(O)c3C(=O)N12` [Compound 1.1.58, (3S,11aR)-6-hydroxy-N-(imidazo[1,2-a]pyrimidin-2-ylmethyl)-3-methyl-5,7-dioxo-2,3,5,7,11,11a-hexahydro[1,3]oxazolo[3,2-a]pyrido[1,2-d]pyrazine-8-carboxamide] was more than 30 nM; that for `C[C@H]1CO[C@@H]2Cn3cc(C(=O)NCc4nnc5ccc(Cl)nn45)c(=O)c(O)c3C(=O)N12` [Compound 1.1.60, (3S,11aR)-6-hydroxy-3-methyl-N-[(6-chloro[1,2,4]triazolo[4,3-b]pyridazin-3-yl)methyl]-5,7-dioxo-2,3,5,7,11,11a-hexahydro[1,3]oxazolo[3,2-a]pyrido[1,2-d]pyrazine-8-carboxamide] was 10 to 30 nM.
